{"source": "patent US20160282364A1", "about": "“ASSAY FOR INSULIN-DEGRADING ENZYME (IDE) INHIBITORS” (PRESIDENT AND FELLOWS OF HARVARD COLLEGE, priority 2013, published 2016)", "experiment_in_all_cases": "Small molecule-enzyme mutant complementation study", "type_in_all_cases": "biochemical", "key": {"[1]": {"target": "T1, hIDE I374M (Homo sapiens, UniProt P14735, I374M)", "T1 construct": "The reported N-His6-tagged human IDE42-1019 construct was introduced in the expression plasmid pTrcHis-A; made in house; host or cells: E. coli Rosetta 2 (DE3) pLysS", "T1 sequence (P14735 42-1019 I374M)": "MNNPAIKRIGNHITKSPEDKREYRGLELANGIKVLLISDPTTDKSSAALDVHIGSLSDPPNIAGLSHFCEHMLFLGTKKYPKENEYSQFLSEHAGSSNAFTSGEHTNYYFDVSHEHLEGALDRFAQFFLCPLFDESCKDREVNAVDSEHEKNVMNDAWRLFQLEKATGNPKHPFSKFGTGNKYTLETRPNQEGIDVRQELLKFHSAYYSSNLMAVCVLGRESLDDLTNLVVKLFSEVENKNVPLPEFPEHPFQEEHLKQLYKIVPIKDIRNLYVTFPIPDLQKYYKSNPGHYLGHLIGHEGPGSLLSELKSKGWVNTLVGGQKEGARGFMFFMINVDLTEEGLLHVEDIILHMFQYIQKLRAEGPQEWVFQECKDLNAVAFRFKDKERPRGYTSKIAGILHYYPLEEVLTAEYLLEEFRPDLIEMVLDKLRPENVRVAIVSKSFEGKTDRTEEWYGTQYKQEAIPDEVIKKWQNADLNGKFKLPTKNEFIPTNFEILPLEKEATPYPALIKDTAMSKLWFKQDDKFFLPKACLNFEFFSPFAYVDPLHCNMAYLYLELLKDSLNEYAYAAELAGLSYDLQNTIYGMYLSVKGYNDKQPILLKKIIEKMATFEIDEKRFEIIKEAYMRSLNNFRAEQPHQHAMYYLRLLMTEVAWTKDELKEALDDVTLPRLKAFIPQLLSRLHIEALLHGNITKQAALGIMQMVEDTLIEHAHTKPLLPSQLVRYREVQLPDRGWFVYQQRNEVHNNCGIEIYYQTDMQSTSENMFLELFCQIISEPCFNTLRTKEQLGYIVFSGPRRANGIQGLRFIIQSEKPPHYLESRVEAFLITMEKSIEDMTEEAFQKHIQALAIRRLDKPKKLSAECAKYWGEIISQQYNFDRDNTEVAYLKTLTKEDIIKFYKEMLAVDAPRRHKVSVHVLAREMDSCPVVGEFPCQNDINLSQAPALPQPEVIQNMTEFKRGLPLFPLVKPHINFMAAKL", "conditions": "I374M vs hIDE WT, batch 1", "from_the_text": "(§1) Protease assays with fluorogenic peptide substrates. […] All assay data points were obtained in duplicate.\n(§2) Site-directed mutagenesis, expression, and purification of human IDE. The reported N-His6-tagged human IDE42-1019 construct was introduced in the expression plasmid pTrcHis-A (Invitrogen) using primers for uracil-specific excision reactions (USER) by Taq (NEB) and Pfu polymerases (PfuTurbo CX®, Agilent). The IDE gene was amplified with the primers 5′-[…]-dU-[…] and 5′-[…] G-dU-[…] (underlined sequences represent overhangs, and italics highlight the PCR priming sequence). Similarly, the pTrcHis-A vector was amplified for USER cloning with the primers 5′-[…] TGA-dU-[…] CCC and 5′-[…]-dU-[…]. Mutant IDE constructs were generated by amplifying the full vector construct with USER cloning primers introducing a mutant overhang (Table 5).\n(§3) All PCR products were purified on microcentrifuge membrane columns (MinElute®, Qiagen) and quantified by UV absorbance (NanoDrop). Each fragment (0.2 pmol) was combined in a 10 μL reaction mixture containing 20 units DpnI (NEB), 0.75 units of USER mix (Endonuclease VIII and Uracil-DNA Glycosylase, NEB), 20 mM Tris-acetate, 50 mM potassium acetate, 10 mM magnesium acetate, 1 mM dithiothreitol at pH 7.9 (1× NEBuffer 4). The reactions were incubated at 37° C. for 45 min, followed by heating to 80° C. and slow cooling to 30° C. (0.2° C./s). The hybridized constructs were directly used for heat-shock transformation of chemically competent NEB turbo E. coli cells according to the manufacturer's instructions. Transformants were selected on carbenicillin LB agar, and isolated colonies were cultured overnight in 2 mL LB.\n(§4) The plasmid was extracted using a microcentrifuge membrane column kit (Miniprep®, Qiagen), and the sequence of genes and vector junctions were confirmed by Sanger sequencing (Table 6). The plasmid constructs were transformed by heat-shock into chemically-competent expression strain Rosetta 2 (DE3) pLysS E. coli cells (EMD Millipore), and selected on carbenicillin/chloramphenicol LB agar. Cells transformed with IDE pTrcHis A constructs were cultured overnight at 37° C. in 2 XYT media (31 g in 1 L) containing 100 μg/mL ampicillin and 34 μg/mL chloramphenicol. Expression of His6-tagged IDE proteins was induced when the culture measured OD600 ˜0.6 by addition of isopropyl-β-D-1-thiogalactopyranoside (IPTG) to 1 mM final concentration, incubated overnight at 37° C., followed by centrifugation at 10,000 g for 30 min at 4° C.\n(§5) Recombinant His6-tagged proteins were purified by Ni(II)-affinity chromatography (IMAC sepharose beads, GE Healthcare®) according to the manufacturer's instructions. The cell pellets were resuspended in pH 8.0 buffer containing 50 mM phosphate, 300 mM NaCl, 10 mM imidazole, 1% Triton X-100 and 1 mM tris(2-carboxyethyl)phosphine hydrochloride (TCEP), and were lysed by probe sonication for 4 min at 4° C., followed by clearing of cell debris by centrifugation at 10,000 g for 25 min at 4° C. The supernatant was incubated with Ni(II)-doped IMAC resin (2 mL) for 3 h at 4° C. The resin was washed twice with the cell resuspension/lysis buffer, and three times with pH 8.0 buffer containing 50 mM phosphate, 300 mM NaCl,50 mM imidazole and 1 mM TCEP. Elution was performed in 2 mL aliquots by raising the imidazole concentration to 250 mM and subsequently to 500 mM in the previous buffer. The fractions were combined and the buffer was exchanged to the recommended IDE buffer (R&D) using spin columns with 100 KDa molecular weight cut off membranes (Millipore). Protein yields were typically ˜10 μg/L, and >90% purity based on gel electrophoresis analysis (Coomassie stained)."}, "[2]": {"target": "T2, hIDE I310R (Homo sapiens, UniProt P14735, I310R)", "T2 construct": "The reported N-His6-tagged human IDE42-1019 construct; made in house; host or cells: E. coli Rosetta 2 (DE3) pLysS", "T2 sequence (P14735 42-1019 I310R)": "as the sequence (P14735 42-1019 I374M) above, with I269R, M333I counted along it", "conditions": "I310R vs hIDE WT, batch 2", "from_the_text": "as §1, §2, §3, §4, §5"}, "[3]": {"target": "T3, hIDE A198T (Homo sapiens, UniProt P14735, A198T)", "T3 construct": "The reported N-His6-tagged human IDE42-1019 construct; made in house; host or cells: E. coli Rosetta 2 (DE3) pLysS", "T3 sequence (P14735 42-1019 A198T)": "as the sequence (P14735 42-1019 I374M) above, with A157T, M333I counted along it", "conditions": "A198T vs hIDE WT, batch 2", "from_the_text": "as §1, §2, §3, §4, §5"}, "[4]": {"target": "T4, hIDE G361Q (Homo sapiens, UniProt P14735, G361Q)", "T4 construct": "The reported N-His6-tagged human IDE42-1019 construct was introduced in the expression plasmid pTrcHis-A; made in house; host or cells: E. coli Rosetta 2 (DE3) pLysS", "T4 sequence (P14735 42-1019 G361Q)": "as the sequence (P14735 42-1019 I374M) above, with G320Q, M333I counted along it", "conditions": "G361Q vs hIDE WT, batch 3", "from_the_text": "as §1, §2, §3, §4, §5"}, "[5]": {"target": "T5, hIDE A198Y (Homo sapiens, UniProt P14735, A198Y)", "T5 construct": "The reported N-His6-tagged human IDE42-1019 construct; made in house; host or cells: E. coli Rosetta 2 (DE3) pLysS", "T5 sequence (P14735 42-1019 A198Y)": "as the sequence (P14735 42-1019 I374M) above, with A157Y, M333I counted along it", "conditions": "A198Y vs hIDE WT, batch 2", "from_the_text": "as §1, §2, §3, §4, §5"}, "[6]": {"target": "T6, hIDE F202R (Homo sapiens, UniProt P14735, F202R)", "T6 construct": "The reported N-His6-tagged human IDE42-1019 construct; made in house; host or cells: E. coli Rosetta 2 (DE3) pLysS", "T6 sequence (P14735 42-1019 F202R)": "as the sequence (P14735 42-1019 I374M) above, with F161R, M333I counted along it", "conditions": "F202R vs hIDE WT, batch 2", "from_the_text": "as §1, §2, §3, §4, §5"}, "[7]": {"target": "T7, hIDE Y314F (Homo sapiens, UniProt P14735, Y314F)", "T7 construct": "The reported N-His6-tagged human IDE42-1019 construct; made in house; host or cells: E. coli Rosetta 2 (DE3) pLysS", "T7 sequence (P14735 42-1019 Y314F)": "as the sequence (P14735 42-1019 I374M) above, with Y273F, M333I counted along it", "conditions": "Y314F vs hIDE WT, batch 2", "from_the_text": "as §1, §2, §3, §4, §5"}, "[8]": {"target": "T8, hIDE W199Y (Homo sapiens, UniProt P14735, W199Y)", "T8 construct": "The reported N-His6-tagged human IDE42-1019 construct; made in house; host or cells: E. coli Rosetta 2 (DE3) pLysS", "T8 sequence (P14735 42-1019 W199Y)": "as the sequence (P14735 42-1019 I374M) above, with W158Y, M333I counted along it", "conditions": "W199Y vs hIDE WT, batch 2", "from_the_text": "as §1, §2, §3, §4, §5"}, "[9]": {"target": "T9, hIDE F202L (Homo sapiens, UniProt P14735, F202L)", "T9 construct": "The reported N-His6-tagged human IDE42-1019 construct; made in house; host or cells: E. coli Rosetta 2 (DE3) pLysS", "T9 sequence (P14735 42-1019 F202L)": "as the sequence (P14735 42-1019 I374M) above, with F161L, M333I counted along it", "conditions": "F202L vs hIDE WT, batch 1", "from_the_text": "as §1, §2, §3, §4, §5"}, "[10]": {"target": "T10, hIDE V360R (Homo sapiens, UniProt P14735, V360R)", "T10 construct": "The reported N-His6-tagged human IDE42-1019 construct was introduced in the expression plasmid pTrcHis-A; made in house; host or cells: E. coli Rosetta 2 (DE3) pLysS", "T10 sequence (P14735 42-1019 V360R)": "as the sequence (P14735 42-1019 I374M) above, with V319R, M333I counted along it", "conditions": "V360R vs hIDE WT, batch 3", "from_the_text": "as §1, §2, §3, §4, §5"}, "[11]": {"target": "T11, hIDE A198Q (Homo sapiens, UniProt P14735, A198Q)", "T11 construct": "The reported N-His6-tagged human IDE42-1019 construct; made in house; host or cells: E. coli Rosetta 2 (DE3) pLysS", "T11 sequence (P14735 42-1019 A198Q)": "as the sequence (P14735 42-1019 I374M) above, with A157Q, M333I counted along it", "conditions": "A198Q vs hIDE WT, batch 1", "from_the_text": "as §1, §2, §3, §4, §5"}, "[12]": {"target": "T12, hIDE V360Q (Homo sapiens, UniProt P14735, V360Q)", "T12 construct": "The reported N-His6-tagged human IDE42-1019 construct was introduced in the expression plasmid pTrcHis-A; made in house; host or cells: E. coli Rosetta 2 (DE3) pLysS", "T12 sequence (P14735 42-1019 V360Q)": "as the sequence (P14735 42-1019 I374M) above, with V319Q, M333I counted along it", "conditions": "V360Q vs hIDE WT, batch 1", "from_the_text": "as §1, §2, §3, §4, §5"}, "[13]": {"target": "T13, hIDE K364A (Homo sapiens, UniProt P14735, K364A)", "T13 construct": "The reported N-His6-tagged human IDE42-1019 construct was introduced in the expression plasmid pTrcHis-A; made in house; host or cells: E. coli Rosetta 2 (DE3) pLysS", "T13 sequence (P14735 42-1019 K364A)": "as the sequence (P14735 42-1019 I374M) above, with K323A, M333I counted along it", "conditions": "K364A vs hIDE WT, batch 2", "from_the_text": "as §1, §2, §3, §4, §5"}}, "data": [{"smiles": "NC(=O)CCC1NC(=O)C=CC(=O)NC(C(N)=O)CCCCNC(=O)C(Cc2ccc(C(=O)c3ccccc3)cc2)NC(=O)C(CC2CCCCC2)NC1=O", "note": "(stereo not shown) [Compound 6b]", "values": [{"measurement": "IC50 shift", "setting": "[1]", "value": 0.7, "unit": "fold"}, {"measurement": "IC50 shift", "setting": "[2]", "value": 0.8, "unit": "fold"}, {"measurement": "IC50 shift", "setting": "[3]", "value": 16, "unit": "fold"}, {"measurement": "IC50 shift", "setting": "[4]", "value": 0.8, "unit": "fold"}, {"measurement": "IC50 shift", "setting": "[5]", "value": 0.5, "unit": "fold"}, {"measurement": "IC50 shift", "setting": "[6]", "value": 3.7, "unit": "fold"}, {"measurement": "IC50 shift", "setting": "[7]", "value": 1.2, "unit": "fold"}, {"measurement": "IC50 shift", "setting": "[8]", "value": 1.8, "unit": "fold"}, {"measurement": "IC50 shift", "setting": "[9]", "value": 1.7, "unit": "fold"}, {"measurement": "IC50 shift", "setting": "[10]", "value": 1.4, "unit": "fold"}, {"measurement": "IC50 shift", "setting": "[11]", "value": 2.3, "unit": "fold"}, {"measurement": "IC50 shift", "setting": "[12]", "value": 1.5, "unit": "fold"}, {"measurement": "IC50 shift", "setting": "[13]", "value": 26, "unit": "fold"}]}]}
